According to patent US20240229116A9, “METHOD FOR DETECTING MICRORNA IN BIOLOGICAL SAMPLE, COMPOSITION OF HYDROCHLORIDE OF NEUTRAL AMINO ACID, AND CONTAINER” (Toray Industries, Inc., priority 2021, published 2024):
Counter-ions that a name gives are not always drawn.

Key:
[1] = system: microRNAs in serum; assay: Detection of microRNAs from serum preserved after mixing with acid (3D-Gene DNA microarray, total fluorescence intensity); design: species or system human
Procedure: The serum which had been mixed with the acid in the step (A) was left to stand and preserved at 23° C. for 48 hours.
A quantity of 27 μL of a 4 M aqueous solution of tris(hydroxymethyl)aminomethane (manufactured by Nacalai Tesque Inc.) was mixed with the serum preserved in the step (B). […]
From the serum which had been mixed with the base in the step (C), microRNAs were collected using an RNA extraction reagent included in a 3D-Gene (registered trademark) RNA extraction reagent from liquid sample kit (manufactured by Toray Industries, Inc.), in accordance with the protocol defined by the company.
The microRNAs collected from the serum in the step (D) were fluorescently labeled, using a 3D-Gene (registered trademark) miRNA Labeling kit (manufactured by Toray Industries, Inc.), and in accordance with the protocol defined by the company. Using a 3D-Gene (registered trademark) Human miRNA Oligo chip (manufactured by Toray Industries, Inc.) containing probes having sequences complementary to 2,565 types of microRNAs, as a DNA microarray chip, hybridization was carried out in accordance with the protocol defined by the company. The DNA microarray chip was scanned using a 3D-Gene (registered trademark) scanner (manufactured by Toray Industries, Inc.), to obtain an image. The fluorescence intensities were digitized using a 3D-Gene (registered trademark) Extraction (manufactured by Toray Industries, Inc.), and the total value of the fluorescence intensities of the microRNAs which had been detected exceeding the detection limit was calculated, and the calculated value was defined as the detection level of the microRNAs.

[2] = pH adjustment of serum (dissolved state in serum and pH of serum); type: physicochemical, human; settings: 1 mL serum added to 0.1 g composition (65 mg solid of glycine hydrochloride), 23° C. one minute
Procedure: From the upper layer of the serum in the tube, 0.1 mL of the serum was collected, and the measurement of the pH was performed using a handy pH meter (manufactured by HORIBA, Ltd.).

[3] = Example 13: serum of healthy subject Y, pH 3.1 after acid, 23° C. 48 hours, Tris base to pH 7.8
[4] = Example 14: subject Y serum, pH 3.1 after acid, 23° C. 48 hours, Tris base to pH 6.0
[5] = Example 15: subject Y serum, pH 3.1 after acid, 23° C. 48 hours, Tris base to pH 7.0
[6] = Example 16: subject Y serum, pH 3.1 after acid, 23° C. 48 hours, no base mixed (pH 3.1)
[7] = Comparative Example 3: subject X serum, no acid (pH 7.5), 23° C. 48 hours, Tris base to pH 7.7

Molecule: O=C(O)CC(O)(CC(=O)O)C(=O)O [Citric acid, citric acid]
- Fluorescence intensities relative to before preservation [1, 3]: 104.5%
- Total value of fluorescence intensities [1, 3]: 1.10 × 10^6
- Fluorescence intensities relative to before preservation ([1]; Example 13: serum of healthy subject Y, pH 3.1 after acid, 23° C. 48 hours, Tris base to pH 7.8, listed as citric acid): ≥ 100%
- Fluorescence intensities relative to before preservation [1, 4]: 85.0%
- Total value of fluorescence intensities [1, 4]: 8.95 × 10^5
- Fluorescence intensities relative to before preservation ([1]; Example 14: subject Y serum, pH 3.1 after acid, 23° C. 48 hours, Tris base to pH 6.0, listed as citric acid): ≥ 70%
- Fluorescence intensities relative to before preservation [1, 5]: 85.5%
- Total value of fluorescence intensities [1, 5]: 9.00 × 10^5
- Fluorescence intensities relative to before preservation ([1]; Example 15: subject Y serum, pH 3.1 after acid, 23° C. 48 hours, Tris base to pH 7.0, listed as citric acid): ≥ 70%
- Fluorescence intensities relative to before preservation [1, 6]: 75.2%
- Total value of fluorescence intensities [1, 6]: 7.92 × 10^5
- Fluorescence intensities relative to before preservation ([1]; Example 16: subject Y serum, pH 3.1 after acid, 23° C. 48 hours, no base mixed (pH 3.1), listed as citric acid): ≥ 70%

Molecule: NCC(=O)O [Glycine hydrochloride, glycine hydrochloride]
- Total value of fluorescence intensities ([1]; Example 1: serum of healthy subject X, pH 2.8 after mixing acid, preserved 23° C. 48 hours, Tris base to pH 7.5): 9.81 × 10^5
- Total value of fluorescence intensities ([1]; Example 2: subject X serum, pH 2.8 after acid, 23° C. 48 hours, Tris base to pH 7.7): 9.51 × 10^5
- Total value of fluorescence intensities ([1]; Example 3: subject X serum, pH 2.8 after acid, 23° C. 48 hours, Tris base to pH 8.0): 1.10 × 10^6
- Total value of fluorescence intensities ([1]; Example 4: subject X serum, pH 2.8 after acid, 23° C. 48 hours, Tris base to pH 8.5): 8.99 × 10^5
- Total value of fluorescence intensities ([1]; Example 5: subject X serum, pH 2.8 after acid, 23° C. 48 hours, Tris base to pH 9.0): 7.89 × 10^5
- Total value of fluorescence intensities ([1]; Example 6: subject X serum, pH 2.8 after acid, 23° C. 48 hours, Tris base to pH 6.0): 7.19 × 10^5
- Total value of fluorescence intensities ([1]; Example 7: subject X serum, pH 2.8 after acid, 23° C. 48 hours, Tris base to pH 7.0): 7.23 × 10^5
- Total value of fluorescence intensities ([1]; Example 8: subject X serum, pH 2.8 after acid, 23° C. 48 hours, no base mixed (pH 2.8)): 6.25 × 10^5
- Total value of fluorescence intensities ([1]; Example 9: subject X serum, pH 4.0 after acid, 23° C. 48 hours, Tris base to pH 7.7): 1.05 × 10^6
- Total value of fluorescence intensities ([1]; Example 10: subject X serum, pH 2.8 after acid, 23° C. 2 hours, Tris base to pH 7.7): 8.70 × 10^5
- Total value of fluorescence intensities ([1]; Example 11: subject X serum, pH 2.8 after acid, 23° C. 6 hours, Tris base to pH 7.7): 9.07 × 10^5
- Total value of fluorescence intensities ([1]; Example 12: subject X serum, pH 2.8 after acid, 23° C. 96 hours, Tris base to pH 7.7): 1.00 × 10^6
- pH of serum ([2]; upper layer, pH 7.7 before the addition): 4.5
- dissolved state in serum ([2]; visual observation): did not quickly dissolve in the serum

Molecule: tris(hydroxymethyl)aminomethane
- Fluorescence intensities relative to before preservation [1, 7]: 16.3%
- Total value of fluorescence intensities [1, 7]: 1.39 × 10^5
